# Paper PMC8157871, “Synthesis, Anticancer Screening of Some Novel Trimethoxy Quinazolines and VEGFR2, EGFR Tyrosine Kinase Inhibitors Assay; Molecular Docking Studies” (Molecules, 2021)
# Legend:
# [1] = system: A549 cell line; experiment: Cytotoxicity against A549 cell line; conditions: read-out: Cytotoxicity IC50 A549
# [2] = system: MDA cells; experiment: Cytotoxicity against MDA cell line; conditions: read-out: Cytotoxicity IC50 MDA
# [3] = system: Hela cells; experiment: Cytotoxicity against Hela cell line; conditions: read-out: Cytotoxicity IC50 Hela
# [4] = biological target: VEGFR2 (Homo sapiens, UniProt P35968); experiment: VEGFR2 enzyme inhibitory activity
# Sequence of VEGFR2 (P35968 20-1356): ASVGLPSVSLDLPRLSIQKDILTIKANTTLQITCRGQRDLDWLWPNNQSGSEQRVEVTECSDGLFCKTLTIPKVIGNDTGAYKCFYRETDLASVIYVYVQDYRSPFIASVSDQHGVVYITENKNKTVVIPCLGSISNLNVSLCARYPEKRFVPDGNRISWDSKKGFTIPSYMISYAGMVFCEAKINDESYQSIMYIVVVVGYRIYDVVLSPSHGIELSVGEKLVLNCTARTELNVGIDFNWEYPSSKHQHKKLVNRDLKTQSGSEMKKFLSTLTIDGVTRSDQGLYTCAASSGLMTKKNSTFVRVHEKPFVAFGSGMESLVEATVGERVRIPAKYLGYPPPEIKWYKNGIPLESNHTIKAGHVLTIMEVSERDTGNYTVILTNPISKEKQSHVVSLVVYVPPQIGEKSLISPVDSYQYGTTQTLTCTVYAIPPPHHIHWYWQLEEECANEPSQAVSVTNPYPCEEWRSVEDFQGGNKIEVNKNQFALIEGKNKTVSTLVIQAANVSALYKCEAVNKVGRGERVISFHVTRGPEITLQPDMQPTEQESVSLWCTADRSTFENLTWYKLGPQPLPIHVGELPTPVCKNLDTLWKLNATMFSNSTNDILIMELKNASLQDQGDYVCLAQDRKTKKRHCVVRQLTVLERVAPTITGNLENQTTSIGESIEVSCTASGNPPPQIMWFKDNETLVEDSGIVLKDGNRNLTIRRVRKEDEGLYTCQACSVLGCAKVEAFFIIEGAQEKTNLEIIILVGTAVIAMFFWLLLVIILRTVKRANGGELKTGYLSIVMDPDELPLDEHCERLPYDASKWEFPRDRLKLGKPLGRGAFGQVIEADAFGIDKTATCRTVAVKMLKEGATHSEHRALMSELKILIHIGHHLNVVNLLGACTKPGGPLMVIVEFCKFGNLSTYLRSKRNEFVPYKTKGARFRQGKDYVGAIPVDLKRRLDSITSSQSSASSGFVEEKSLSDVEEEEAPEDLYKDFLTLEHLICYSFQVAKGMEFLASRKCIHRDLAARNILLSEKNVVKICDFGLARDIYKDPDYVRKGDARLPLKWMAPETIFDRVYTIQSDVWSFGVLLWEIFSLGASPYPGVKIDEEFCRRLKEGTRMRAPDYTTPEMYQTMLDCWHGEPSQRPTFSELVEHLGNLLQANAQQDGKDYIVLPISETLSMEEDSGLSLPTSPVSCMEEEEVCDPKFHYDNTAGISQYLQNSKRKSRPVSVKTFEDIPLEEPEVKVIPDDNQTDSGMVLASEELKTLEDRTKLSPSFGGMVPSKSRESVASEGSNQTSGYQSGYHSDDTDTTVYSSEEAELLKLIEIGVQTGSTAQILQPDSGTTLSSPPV
# Procedure: (§1) The synthesized compounds were evaluated for anticancer activity by adapting a reported procedure [29, 30, 31, 32, 33] using two enzymes, VEGFR2 and EGFR, as well as three cell lines.
# [5] = biological target: EGFR (Homo sapiens, UniProt P00533); experiment: EGFR enzyme inhibitory activity
# Sequence of EGFR (P00533 25-1210): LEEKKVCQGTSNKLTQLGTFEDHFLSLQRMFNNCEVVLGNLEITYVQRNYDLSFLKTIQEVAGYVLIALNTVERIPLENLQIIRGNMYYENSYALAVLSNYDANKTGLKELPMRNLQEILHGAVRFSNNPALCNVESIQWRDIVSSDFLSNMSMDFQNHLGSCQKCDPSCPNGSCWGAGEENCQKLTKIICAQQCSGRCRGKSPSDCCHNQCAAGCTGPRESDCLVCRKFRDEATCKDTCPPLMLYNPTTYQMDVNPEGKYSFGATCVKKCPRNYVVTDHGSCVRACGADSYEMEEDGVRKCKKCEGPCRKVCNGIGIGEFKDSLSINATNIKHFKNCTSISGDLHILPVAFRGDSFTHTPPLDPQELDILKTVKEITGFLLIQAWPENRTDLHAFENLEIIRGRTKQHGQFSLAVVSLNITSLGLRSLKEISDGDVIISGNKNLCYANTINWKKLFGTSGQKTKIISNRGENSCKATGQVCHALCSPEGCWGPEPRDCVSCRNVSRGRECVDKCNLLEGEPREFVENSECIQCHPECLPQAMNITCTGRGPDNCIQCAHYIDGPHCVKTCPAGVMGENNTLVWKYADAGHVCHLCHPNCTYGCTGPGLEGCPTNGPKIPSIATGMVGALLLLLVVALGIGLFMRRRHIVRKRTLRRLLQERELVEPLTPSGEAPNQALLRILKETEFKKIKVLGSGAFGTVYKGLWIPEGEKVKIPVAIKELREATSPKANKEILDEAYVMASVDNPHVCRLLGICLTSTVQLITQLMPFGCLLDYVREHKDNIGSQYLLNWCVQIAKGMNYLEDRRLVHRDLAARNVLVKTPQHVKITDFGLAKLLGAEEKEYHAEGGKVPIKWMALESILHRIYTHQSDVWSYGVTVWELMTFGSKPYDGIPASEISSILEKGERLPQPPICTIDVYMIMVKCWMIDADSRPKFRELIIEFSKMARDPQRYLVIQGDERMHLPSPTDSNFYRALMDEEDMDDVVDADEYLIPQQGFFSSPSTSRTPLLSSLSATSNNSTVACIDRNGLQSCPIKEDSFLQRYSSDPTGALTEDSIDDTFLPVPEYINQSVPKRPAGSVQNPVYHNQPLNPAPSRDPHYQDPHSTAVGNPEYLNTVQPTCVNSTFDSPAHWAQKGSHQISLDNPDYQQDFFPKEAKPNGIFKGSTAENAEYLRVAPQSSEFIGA
# Procedure: as §1
# [6] = relative to docetaxel, from IC50 values
melting point,IC50 [4],"inhibitory activity for enzyme VEGFR2 compared to the reference drug [4, 6]",IC50 [5],"inhibitory activity for enzyme EGFR compared to the reference drug [5, 6]",Compound,IC50 [1],IC50 [2],IC50 [3]
182 to 184 °C,,,,,"COc1cc(-c2nc3c(OC)cccc3c(=O)o2)cc(OC)c1OC [Compound 3, 8-methoxy-2-trimethoxyphenyl-4H-benzo[d](1,3)oxazin-4-one]",43.6 ± 1.1 µM,17.4 ± 0.5 µM,66.5 ± 1.74 µM
182 to 184 °C,,,,,"COc1cc(-c2nc3c(OC)cccc3c(=O)n2N)cc(OC)c1OC [Compound 4, 3-amino-8-methoxy-2-trimethoxyphenylquanazoline-4(3H)-one]",18 ± 0.5 µM,4.12 ± 0.1 µM,29.8 ± 0.78 µM
242 to 244 °C,,,,,"COc1cc(-c2nc3c(OC)cccc3c(=O)[nH]2)cc(OC)c1OC [Compound 5, 8-methoxy-2-trimethoxyphenylquanazoline-4(3H)-one]",26.3 ± 0.7 µM,4.39 ± 0.1 µM,12.9 ± 0.34 µM
132 to 134 °C,0.0981 ± 0.00293 µM,~91%,0.106 ± 0.00222 µM,~53%,COc1cccc(C(N)=O)c1NC(=O)c1cc(OC)c(OC)c(OC)c1 [Compound 6],81 ± 2.1 µM,0.79 ± 0.04 µM,2.8 ± 0.07 µM
195 to 197 °C,,,,,"COc1cccc(C(=O)NN)c1NC(=O)c1cc(OC)c(OC)c(OC)c1 [Compound 7, 3-methoxy-2-(trimethoxybenzamido)-benzoylhydrazide]",46.3 ± 1.2 µM,9 ± 0.2 µM,18.7 ± 0.49 µM
263 to 265 °C,,,,,"COc1cccc(C(=O)NNS(=O)(=O)c2ccccc2)c1NC(=O)c1cc(OC)c(OC)c(OC)c1 [Compound 8, 3-methoxy-2-(trimethoxybenzamido)-N-[benzenesulphonyl]benzoylhydrazide]",13 ± 0.3 µM,11.7 ± 0.3 µM,4.94 ± 0.13 µM
244 to 246 °C,,,,,"COc1cc(-c2nc3c(OC)cccc3c(=O)n2NS(=O)(=O)c2ccccc2)cc(OC)c1OC [Compound 9, 3-benzenesulfamoyl-8-methoxy-2-trimethoxyphenylquanazoline-4(3H)-one]",19.9 ± 0.5 µM,3.42 ± 0.1 µM,11.7 ± 0.31 µM
218 to 220 °C,,,,,"COc1cc(-c2nc3c(OC)cccc3c(=O)n2C)cc(OC)c1OC [Compound 10, 3-methyl-8-methoxy-2-trimethoxyphenylquanazoline-4(3H)-one]",12.3 ± 0.3 µM,7.77 ± 0.2 µM,3.98 ± 0.1 µM
237 to 239 °C,,,,,COc1cc(-c2nc3c(OC)cccc3c(=O)n2-c2cc(OC)c(OC)c(OC)c2)cc(OC)c1OC [Compound 11],4.03 ± 0.1 µM,7.06 ± 0.2 µM,12 ± 0.31 µM
,0.0893 ± 0.00267 µM,,0.0561 ± 0.00117 µM,,"CC(=O)O[C@@]12CO[C@@H]1C[C@H](O)[C@@]1(C)C(=O)[C@H](O)C3=C(C)[C@@H](OC(=O)[C@H](O)[C@@H](NC(=O)OC(C)(C)C)c4ccccc4)C[C@@](O)([C@@H](OC(=O)c4ccccc4)[C@H]21)C3(C)C [Docetaxel, docetaxel, reference compound]",10.8 ± 0.23 µM,3.98 ± 0.08 µM,9.65 ± 0.2 µM
